For 34 molecules, EC50 results are on record in patent publication US20160045505A1, “COMPOUNDS AND COMPOSITIONS FOR THE TREATMENT OF PARASITIC DISEASES” (NOVARTIS AG, priority 2013, published 2016).

The subject of assay [1] is Leishmania donovani axenic amastigote parasites. The assay can be described thus: Leishmania donovani axenic amastigote proliferation assay (Cell TiterGlo luminescence, 2 day incubation). Type of assay: cell-based. The settings on record: for pEC50: read-out: L. donovani amastigotes EC50. Background: Cellular ATP, detected with luciferase, serves as a proxy for viable cell number.

Assay [2] concerns L. donovani HU3 strain in mouse peritoneal macrophages. The assay can be described thus: Assay for proliferation of Leishmania parasites in infected mouse peritoneal macrophages (SybrGreen staining, high-content imaging, 5 days). The settings on record: for pEC50: L. donovani in mouse peritoneal macrophages, read-out: L. donovani Macrophage EC50. Type of assay: cell-based, Leishmania donovani.

Assay [3] relates to Trypanosoma brucei Lister 427 strain, bloodstream form. The assay can be described thus: Assay for proliferation of kinetoplastid parasite Trypanosoma brucei (Cell Titer Glo, 48 hours). Type of assay: cell-based. To be noted: T. brucei Lister 427 bloodstream form, read-out: T. brucei EC50. The source says:
Assay for Proliferation of Kinetoplastid Parasite Trypanosoma brucei.
The proliferation is quantified by the addition of Cell Titer Glo (Promega®) a luminescent cell viability assay that measures the number of viable cells in culture based on the quantification of cellular ATP amount, which is an indicator of metabolically active cells.
The following assay illustrates the invention without in any way limiting the scope of the invention. This parasite proliferation assay measures the increase in parasite growth using an assay that measures ATP activity, Cell Titer Glo®.
Trypanosoma brucei Lister 427 strain is grown in HMI-9 Trypanosome media for T. brucei bloodstream form. 30 μl of HMI-9 media is dispensed into 384 well assay plates. 200 nl of compounds of the invention (in DMSO), including anti-trypanosome controls (Pentamidine and suramin), are then transferred into the assay plates, as well as DMSO alone to serve as a negative control for inhibition. Then 25 μl of a suspension of T. brucei culture in HMI-9 media is dispensed into the assay plates. The final concentration of parasites in culture corresponds to 1.7% of 0.5 uM ATP activity with Cell Titer Glo® in HMI-9 media. The plates are placed in a 37° C. incubator for 48 hours in an atmospheric environment containing 5% CO2. 40 μl of Cell Titer Glo® is dispensed into the plates. The plates are then read for luminescence. The percentage inhibition of 50%, EC50, is calculated for each compound.

Assay [4] concerns Trypanosoma cruzi amastigotes (Tulahuen strain expressing Lac-Z) cultured in 3T3 fibroblast cells. The assay is described as follows: microbe, parasite or virus in culture. Type of assay: cell-based. The settings on record: Trypanosoma cruzi, TULAHUEN, Fibroblast; for pEC50: T. cruzi amastigotes in 3T3 fibroblast cells, read-out: T cruzi EC50.
Where [5] appears, read: Leishmania donovani, L. donovani axenic amastigotes.
The mark [6] stands for this setting: Leishmania donovani, Peritoneal macrophage.
The mark [7] stands for this setting: Trypanosoma brucei, inhibition of proliferation.
Setting [8] is: Leishmania donovani, axenic amastigotes, inhibition of proliferation.
Where [9] appears, read: Leishmania donovani, Peritoneal macrophage, inhibition of proliferation.

pEC50: −log10 of the molar value. Where two headings read alike, the source gives them in different places.

A word on the pEC50: it is the negative decadic logarithm of the EC50, by convention in mol/L. For `CC(=O)Nc1ccc(F)c(-c2cn3cc(NC(C)=O)cnc3n2)c1` [Compound 567, N-(2-(5-acetamido-2-fluorophenyl)imidazo[1,2-a]pyrimidin-6-yl)acetamide], the results for the pEC50 in assay [1] (setting [5]), in assay [2] (setting [6]) and in assay [3] (Trypanosoma brucei) were < 4.60, < 4.30 and 4.92, respectively.
Taken in the same sequence, the figures for `CN(C(=O)N1CCCC1)c1ccc(F)c(-c2cn3cc(N)cnc3n2)c1` [Compound 558] were < 4.60, < 4.30 and 4.76.
Taken in the same sequence, the figures for `COC(=O)Nc1ccc(F)c(-c2cn3cc(Br)cnc3n2)c1` [Compound 517] were 5.34, < 4.30 and 5.85.
For the molecule `CON(C)C(=O)Nc1cccc(-c2cn3cc(NC(=O)OC(C)C)cnc3n2)c1` [Compound 215], the negative logarithm of the EC50 (pEC50) in assay [1] (axenic amastigotes, inhibition of proliferation) was 6.27; in assay [2] (inhibition of proliferation), 5.88; in assay [3] (inhibition of proliferation), 6.74.
As for `CC(C)OC(=O)Nc1ccc(F)c(-c2cn3cc(NC(=O)OC(C)C)cnc3n2)c1` [Compound 40], in assay [3] (setting [7]), the pEC50 is 6.73.
Consider `O=C(Nc1ccc(Cl)c(-c2cn3cc(-c4ccc(F)cc4)cnc3n2)c1)N1CCCC1` [Compound 25], for which the values for the pEC50 in assay [1] (setting [8]), in assay [2] (setting [9]) and in assay [3] (setting [7]) were 7.27, 7.00 and 7.56, respectively.
With `CC(C)c1cnc2nc(-c3cc(N)ccc3F)cn2c1` [Compound 584, 4-fluoro-3-(6-isopropylimidazo[1,2-a]pyrimidin-2-yl)aniline], the pEC50 in assay [1] (setting [5]) was < 4.60; in assay [2] (setting [6]), 5.64; in assay [3] (Trypanosoma brucei) it was < 4.30.
In the case of `O=C(Nc1ccc(F)c(-c2cn3cc(Br)cnc3n2)c1)C1CCCC1` [Compound 196, N-(3-(6-bromoimidazo[1,2-a]pyrimidin-2-yl)-4-fluorophenyl)cyclopentanecarboxamide], the pEC50 in assay [1] (setting [8]) was 5.19; in assay [3] (setting [7]), 5.73.
As for `COC(=O)Nc1ccc(-c2cnc3nc(-c4cc(NC(=O)c5ccc(C)o5)ccc4Cl)cn3c2)cc1` [Compound 27, methyl (4-(2-(2-chloro-5-(5-methylfuran-2-carboxamido)phenyl)imidazo[1,2-a]pyrimidin-6-yl)phenyl)carbamate], the pEC50 is 7.46 in assay [1] (setting [8]), 6.96 in assay [2] (setting [9]) and 6.23 in assay [3] (setting [7]).
Consider `CC(C)OC(=O)Nc1cnc2nc(-c3cc(NC(=O)N4CC(O)C4)ccc3F)cn2c1` [Compound 288], for which the values for the pEC50 in assay [1] (setting [8]), in assay [2] (setting [9]) and in assay [3] (setting [7]) were 5.11, < 4.30 and 4.47, respectively.
For `O=C(Nc1cnc2nc(-c3ccc(F)c(NC(=O)N4CCCC4)c3)cn2c1)OCc1ccccc1` [Compound 513, Benzyl (2-(4-fluoro-3-(pyrrolidine-1-carboxamido)phenyl)imidazo[1,2-a]pyrimidin-6-yl)carbamate], the figures for the pEC50 in assay [1] (setting [5]), in assay [2] (setting [6]) and in assay [3] (Trypanosoma brucei) were 6.02, 5.80 and 6.37, respectively.
Turning to `Cc1nc(C)c(C(=O)Nc2ccc(F)c(-c3cn4cc(NC(=O)c5nccn5C)cnc4n3)c2)o1` [Compound 174], in assay [3] (setting [7]), the pEC50 is 6.32.
For the molecule `CC(=O)Nc1ccc(F)c(-c2cn3cc(NC(=O)OC(C)(C)C)cnc3n2)c1` [Compound 529, tert-butyl (2-(5-acetamido-2-fluorophenyl)imidazo[1,2-a]pyrimidin-6-yl)carbamate], the values for the pEC50 in assay [1] (setting [5]), in assay [2] (setting [6]) and in assay [3] (Trypanosoma brucei) were 5.14, < 4.30 and 5.49, respectively.
In the case of `Cc1ccc(C(=O)Nc2ccc(Cl)c(-c3cn4cc(-c5ccsc5)cnc4n3)c2)o1` [Compound 30], the pEC50 in assay [1] (setting [8]) is 7.00; in assay [2] (setting [9]), 6.76; in assay [3] (setting [7]), 7.06.
With `CC(C)OC(=O)Nc1cnc2nc(-c3cc(NC(=O)c4ccco4)ccc3F)cn2c1` [Compound 12, isopropyl (2-(2-fluoro-5-(furan-2-carboxamido)phenyl)imidazo[1,2-a]pyrimidin-6-yl)carbamate], the pEC50 in assay [3] (setting [7]) was 7.18.
For the molecule `CC(C)OC(=O)Nc1cnc2nc(-c3cccc(NC(=O)N(C)C)c3)cn2c1` [Compound 20], the pEC50 in assay [1] (setting [8]) is 4.87; in assay [2] (setting [9]) it was 5.10; in assay [3] (setting [7]), 5.70.
For the molecule `Nc1cnc2nc(-c3ccc(F)c(NC(=O)N4CCCC4)c3)cn2c1` [Compound 568, N-(5-(6-aminoimidazo[1,2-a]pyrimidin-2-yl)-2-fluorophenyl)pyrrolidine-1-carboxamide], the pEC50 in assay [3] (Trypanosoma brucei) was 5.01.
As for `Cc1cnc(C(=O)Nc2cccc(-c3cn4cc(NC(=O)OC(C)C)cnc4n3)c2)s1` [Compound 41], in assay [3] (setting [7]), the pEC50 is 5.36.
On to `O=CNc1cnc2nc(-c3cc(NC(=O)N4CCCC4)ccc3F)cn2c1` [Compound 533, N-(4-fluoro-3-(6-formamidoimidazo[1,2-a]pyrimidin-2-yl)phenyl)pyrrolidine-1-carboxamide], for which the pEC50 in assay [3] (Trypanosoma brucei) is 5.81.
On to `O=CNc1ccc(F)c(-c2cn3cc(Br)cnc3n2)c1` [Compound 531, N-(3-(6-bromoimidazo[1,2-a]pyrimidin-2-yl)-4-fluorophenyl)formamide], for which the values for the pEC50 in assay [1] (setting [5]) and in assay [3] (Trypanosoma brucei) were < 4.60 and < 4.30, respectively.
Taken in the same sequence, the figures for `CC(=O)Nc1ccc(F)c(-c2cn3cc(N)cnc3n2)c1` [Compound 569] were < 4.60 and < 4.30.
Regarding `O=C(Nc1ccc(F)c(-c2cn3cc(Br)cnc3n2)c1)N1CCOCC1` [Compound 515], the results for the pEC50 in assay [1] (setting [5]) and in assay [3] (Trypanosoma brucei) were 5.13 and 4.87, respectively.
Take `O=C(Nc1ccc(F)c(-c2cn3cc(Br)cnc3n2)c1)c1ccccc1` [Compound 197]: the pEC50 was 5.60 in assay [1] (setting [8]) and 6.31 in assay [3] (setting [7]).
Take `Cc1nc(C)c(C(=O)Nc2ccc(F)c(-c3cn4cc(-c5ccc(CCO)cn5)cnc4n3)c2)o1` [Compound 585, N-(4-fluoro-3-(6-(5-(2-hydroxyethyl)pyridin-2-yl)imidazo[1,2-a]pyrimidin-2-yl)phenyl)-2,4-dimethyloxazole-5-carboxamide]: the pEC50 in assay [3] (Trypanosoma brucei) is 6.38.
For the molecule `CC(C)OC(=O)Nc1cnc2nc(-c3cccc(NC(=O)C4CC4)c3)cn2c1` [Compound 42], the pEC50 in assay [3] (setting [7]) is 5.77.
Regarding `Nc1cnc2nc(-c3cccc(NC(=O)N4CCCC4)c3F)cn2c1` [Compound 580], the pEC50 in assay [1] (setting [5]) is < 4.60; in assay [3] (Trypanosoma brucei), < 4.30.
Regarding `Cc1nc(C)c(C(=O)Nc2ccc(F)c(-c3cn4cc(N5CCC5)cnc4n3)c2)o1` [Compound 559], the pEC50 is < 4.70 in assay [4], < 4.60 in assay [1] (setting [5]) and < 4.30 in assay [2] (setting [6]).
Regarding `CC(C)OC(=O)Nc1cnc2nc(-c3cc(NC(=O)NC4CC4)ccc3Cl)cn2c1` [Compound 285], the pEC50 in assay [4] (inhibition of proliferation) is 5.30; in assay [1] (setting [8]), 4.93; in assay [2] (setting [9]), 4.79.
Taken in the same sequence, the figures for `CC(C)OC(=O)Nc1cnc2nc(-c3cc(NC(=O)N4CC(=O)C4)ccc3Cl)cn2c1` [Compound 279] were < 4.76, 5.61 and 5.02.
Broadly, the EC50 is the concentration at which the effect is half-maximal. As to `Cc1nc(C)c(C(=O)Nc2ccc(F)c(-c3cn4cc(N5CCN(C)CC5)cnc4n3)c2)o1` [Compound 565, N-(4-fluoro-3-(6-(4-methylpiperazin-1-yl)imidazo[1,2-a]pyrimidin-2-yl)phenyl)-2,4-dimethyloxazole-5-carboxamide], the concentration giving a half-maximal response (EC50) came to 11.2 µM in assay [4] (read-out: T cruzi EC50 (μM)); 12.3 µM in assay [1] (Leishmania donovani, read-out: L. donovani amastigotes EC50 (μM)); 6.27 µM in assay [2] (Leishmania donovani, Peritoneal macrophage, read-out: L. donovani Macrophage EC50 (μM)).
Regarding `Cc1nc(C(=O)Nc2ccc(Cl)c(-c3cn4cc(NC(=O)OC(C)C)cnc4n3)c2)c[nH]1` [Compound 59], the pEC50 in assay [4] (inhibition of proliferation) was < 4.70; in assay [1] (setting [8]), < 4.60; in assay [2] (setting [9]), < 4.30.
On to `CC(C)OC(=O)Nc1cnc2nc(-c3cc(NC(=O)[C@@H](N)c4ccccc4)ccc3F)cn2c1` [Compound 84], for which the negative-log EC50 (pEC50) in assay [4] (inhibition of proliferation) was 5.06; in assay [1] (setting [8]), < 4.60; in assay [2] (setting [9]), 5.00.
Taken in the same sequence, the figures for `CN(CC(F)(F)F)C(=O)Nc1ccc(F)c(-c2cn3cc(C4=CCOCC4)cnc3n2)c1` [Compound 326] were 6.91, 6.80 and 6.30.
Regarding `C=C(c1ccccc1)c1cnc2nc(-c3cc(NC(=O)c4oc(C)nc4C)ccc3F)cn2c1` [Compound 346], the pEC50 in assay [4] (inhibition of proliferation) was 6.80; in assay [1] (setting [8]), 6.45; in assay [2] (setting [9]), 6.31.
